The source of these data is US8658661B2, “Oxadiazole inhibitors of leukotriene production” (Boehringer Ingelheim International GmbH, priority 2010, dated 2014).

For orientation: pIC50 means −log10 of the IC50, conventionally taken in molar units.

The structures appear in SMILES notation. pIC50: −log10 of the molar value. A value given as a limit tells only on which side of the number the result lay.

For test [1], the system named is synthesis of LTB4 in human whole blood. Description: Human whole blood assay (inhibition of LTB4 synthesis, calcimycin stimulated). It counts as cell-based. Conditions: heparinized human whole blood, calcimycin 20 μM, plasma LTB4. The method in brief: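 Whole-blood cellular format, heparinized human donors: 15 min compound pretreatment, then 30 min calcimycin stimulation (20 μM final), both at 37° C. Low-speed centrifugation yields plasma, in which LTB4 is read by homogeneous time-resolved fluorescence immunoassay.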

The target in test [2] is T1, recombinant human FLAP protein (Homo sapiens, UniProt P20292).
T1 construct: made in house; host or cells: Sf9 insect cells (100,000×g membrane pellet used)
T1 sequence (P20292 1-161): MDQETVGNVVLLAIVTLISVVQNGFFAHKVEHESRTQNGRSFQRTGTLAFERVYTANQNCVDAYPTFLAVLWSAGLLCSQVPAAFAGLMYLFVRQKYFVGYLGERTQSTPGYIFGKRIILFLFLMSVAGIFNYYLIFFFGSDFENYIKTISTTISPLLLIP
Briefly: FLAP binding assay (SPA, displacement of [125I]L-691,831). The settings on record: for pIC50: membranes of sf9 cells expressing recombinant human FLAP, [125I]L-691,831 probe, read-out: FLAP binding IC50. Put shortly:
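Membranes from sf9 cells expressing human FLAP in pH 7.5 Tris buffer (MgCl2, EDTA, PMSF). Non-specific binding defined with 10 μM cold L-691,831.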
On the technique in general: Loss of bound radioactivity is the signal in a displacement assay; it reports binding, not function.

As to `Cn1cc(-c2nc([C@](C)(c3ccc(-c4cnc(N)nc4)cc3)C3CC3)no2)cn1` [Example 62, 5-(4-{(1S)-1-cyclopropyl-1-[5-(1-methyl-1H-pyrazol-4-yl)-1,2,4-oxadiazol-3-yl]ethyl}phenyl)pyrimidin-2-amine], the pIC50 is 6.46 in test [1] and 7.74 in test [2].

Consider `COCCn1cc(-c2nc([C@@](C)(c3ccc(-c4cnc(N)nc4)cc3)C(C)C)no2)cn1` [Example 63, 5-{4-[(2R)-2-{5-[1-(2-methoxyethyl)-1H-pyrazol-4-yl]-1,2,4-oxadiazol-3-yl}-3-methylbutan-2-yl]phenyl}pyrimidin-2-amine], for which the results for the pIC50 in test [1] and in test [2] were 7.85 and 8.96, respectively.

Regarding `COCCn1cc(-c2nc([C@](C)(c3ccc(-c4cnc(N)nc4)cc3)C(C)C)no2)cn1` [Example 64, 5-{4-[(2S)-2-{5-[1-(2-methoxyethyl)-1H-pyrazol-4-yl]-1,2,4-oxadiazol-3-yl}-3-methylbutan-2-yl]phenyl}pyrimidin-2-amine], the results for the pIC50 in test [1] and in test [2] were 6.39 and 7.80, respectively.

For `Cn1cc(-c2nc([C@@H](c3ccc(-c4cnc(N)nc4)cc3)C(C)(C)C)no2)cn1` [Example 65, 5-(4-{(1R)-2,2-dimethyl-1-[5-(1-methyl-1H-pyrazol-4-yl)-1,2,4-oxadiazol-3-yl]propyl}phenyl)pyrimidin-2-amine], the pIC50 in test [1] was 5.82; in test [2] it was 7.12.

Consider `Cn1cc(-c2nc([C@H](c3ccc(-c4cnc(N)nc4)cc3)C(C)(C)C)no2)cn1` [Example 66, 5-(4-{(1S)-2,2-dimethyl-1-[5-(1-methyl-1H-pyrazol-4-yl)-1,2,4-oxadiazol-3-yl]propyl}phenyl)pyrimidin-2-amine], for which the pIC50 in test [1] is 6.48; in test [2] it was 7.96.

For `CC(C)C(c1ccc(-c2cnc(N)nc2)cc1)c1noc(-c2cnn(C)c2)n1` (stereo not drawn) [Example 67, 5-(4-{2-methyl-1-[5-(1-methyl-1H-pyrazol-4-yl)-1,2,4-oxadiazol-3-yl]propyl}phenyl)pyrimidin-2-amine], the results for the pIC50 in test [1] and in test [2] were 6.72 and 8.21, respectively.

As for `Cn1cc(-c2nc(C(C)(C)c3ccc(-c4cnc(N)nc4)cc3)no2)cn1` [Example 68, 5-(4-{2-[5-(1-methyl-1H-pyrazol-4-yl)-1,2,4-oxadiazol-3-yl]propan-2-yl}phenyl)pyrimidin-2-amine], the negative logarithm of the IC50 (pIC50) in test [1] is 7.03; in test [2] it was 8.17.

For `CC(C)(c1ccc(-c2cnc(N)nc2)cc1)c1noc(-c2cn[nH]c2)n1` [Example 69, 5-(4-{2-[5-(1H-pyrazol-4-yl)-1,2,4-oxadiazol-3-yl]propan-2-yl}phenyl)pyrimidin-2-amine], the pIC50 in test [1] was 6.92; in test [2], 8.11.

For `CC(C)(O)CNc1ccc(-c2nc(C(C)(C)c3ccc(-c4cnc(N)nc4)cc3)no2)cn1` [Example 70, 1-{[5-(3-{2-[4-(2-aminopyrimidin-5-yl)phenyl]propan-2-yl}-1,2,4-oxadiazol-5-yl)pyridin-2-yl]amino}-2-methylpropan-2-ol], the negative-log IC50 (pIC50) in test [1] was 6.23; in test [2], 8.15.

On to `CC(C)(c1ccc(-c2cnc(N)nc2)cc1)c1noc(-c2ccc(NCCS(C)(=O)=O)nc2)n1` [Example 71, 5-(4-{2-[5-(6-{[2-(methylsulfonyl)ethyl]amino}pyridin-3-yl)-1,2,4-oxadiazol-3-yl]propan-2-yl}phenyl)pyrimidin-2-amine], for which the pIC50 was 6.05 in test [1] and 7.77 in test [2].

Regarding `CC(C)(CO)Nc1ccc(-c2nc(C(C)(C)c3ccc(-c4cnc(N)nc4)cc3)no2)cn1` [Example 72, 2-{[5-(3-{2-[4-(2-aminopyrimidin-5-yl)phenyl]propan-2-yl}-1,2,4-oxadiazol-5-yl)pyridin-2-yl]amino}-2-methylpropan-1-ol], the results for the pIC50 in test [1] and in test [2] were 6.36 and 7.92, respectively.

With `CC(C)(O)CNc1cnc(-c2nc(C(C)(C)c3ccc(-c4cnc(N)nc4)cc3)no2)cn1` [Example 73, 1-{[5-(3-{2-[4-(2-aminopyrimidin-5-yl)phenyl]propan-2-yl}-1,2,4-oxadiazol-5-yl)pyrazin-2-yl]amino}-2-methylpropan-2-ol], the pIC50 in test [1] was 6.00; in test [2] it was 7.55.

Take `CC(C)(CO)Nc1cnc(-c2nc(C(C)(C)c3ccc(-c4cnc(N)nc4)cc3)no2)cn1` [Example 74, 2-{[5-(3-{2-[4-(2-aminopyrimidin-5-yl)phenyl]propan-2-yl}-1,2,4-oxadiazol-5-yl)pyrazin-2-yl]amino}-2-methylpropan-1-ol]: the pIC50 in test [1] was 6.19; in test [2], 7.77.

With `CC(C)(O)Cn1cc(-c2nc(C(C)(C)c3ccc(-c4cnc(N)nc4)cc3)no2)cn1` [Example 75, 1-[4-(3-{2-[4-(2-aminopyrimidin-5-yl)phenyl]propan-2-yl}-1,2,4-oxadiazol-5-yl)-1H-pyrazol-1-yl]-2-methylpropan-2-ol], the values for the pIC50 in test [1] and in test [2] were 6.59 and 7.64, respectively.

On to `COCCn1cc(-c2nc(C(C)(C)c3ccc(-c4cnc(N)nc4)cc3)no2)cn1` [Example 76, 5-[4-(2-{5-[1-(2-methoxyethyl)-1H-pyrazol-4-yl]-1,2,4-oxadiazol-3-yl}propan-2-yl)phenyl]pyrimidin-2-amine], for which the results for the pIC50 in test [1] and in test [2] were 6.57 and 7.46, respectively.

For the compound `CC(C)[C@](C)(c1ccc(-c2cnc(N)nc2)cc1)c1noc(-c2cn[nH]c2)n1` [Example 77, 5-(4-{(2R)-3-methyl-2-[5-(1H-pyrazol-4-yl)-1,2,4-oxadiazol-3-yl]butan-2-yl}phenyl)pyrimidin-2-amine], the pIC50 in test [1] was 7.44; in test [2] it was 8.77.

As for `CC(C)[C@@](C)(c1ccc(-c2cnc(N)nc2)cc1)c1noc(-c2cn[nH]c2)n1` [Example 78, 5-(4-{(2S)-3-methyl-2-[5-(1H-pyrazol-4-yl)-1,2,4-oxadiazol-3-yl]butan-2-yl}phenyl)pyrimidin-2-amine], the pIC50 in test [1] was 6.62; in test [2], 8.89.

On to `CNC(=O)Cn1cc(-c2nc(C(C)(C)c3ccc(-c4cnc(N)nc4)cc3)no2)cn1` [Example 79, 2-[4-(3-{2-[4-(2-aminopyrimidin-5-yl)phenyl]propan-2-yl}-1,2,4-oxadiazol-5-yl)-1H-pyrazol-1-yl]-N-methylacetamide], for which the pIC50 in test [1] is 5.66; in test [2], 6.82.

On to `CC(C)C(C)(c1ccc(-c2cnc(N)nc2)cc1)c1noc(NCCO)n1` (stereo not drawn) [Example 80, 2-[(3-{2-[4-(2-aminopyrimidin-5-yl)phenyl]-3-methylbutan-2-yl}-1,2,4-oxadiazol-5-yl)amino]ethanol], for which the pIC50 was 6.46 in test [1] and 7.64 in test [2].

With `COCCNc1nc(C(C)(c2ccc(-c3cnc(N)nc3)cc2)C(C)C)no1` (stereo not drawn) [Example 81, 5-[4-(2-{5-[(2-methoxyethyl)amino]-1,2,4-oxadiazol-3-yl}-3-methylbutan-2-yl)phenyl]pyrimidin-2-amine], the pIC50 in test [1] was 6.74; in test [2], 7.96.

For the compound `CC(C)C(C)(c1ccc(-c2cnc(N)nc2)cc1)c1noc(NCC(C)(C)O)n1` (stereo not drawn) [Example 82, 1-[(3-{2-[4-(2-aminopyrimidin-5-yl)phenyl]-3-methylbutan-2-yl}-1,2,4-oxadiazol-5-yl)amino]-2-methylpropan-2-ol], the pIC50 in test [1] was 6.66; in test [2], 7.89.

For `CC(C)C(C)(c1ccc(-c2cnc(N)nc2)cc1)c1noc(N2CCNCC2)n1` (stereo not drawn) [Example 83, 5-(4-{3-methyl-2-[5-(piperazin-1-yl)-1,2,4-oxadiazol-3-yl]butan-2-yl}phenyl)pyrimidin-2-amine], the figures for the pIC50 in test [1] and in test [2] were 5.96 and 7.59, respectively.

With `CC(C)C(C)(c1ccc(-c2cnc(N)nc2)cc1)c1noc(C(=O)N2CCNCC2)n1` (stereo not drawn) [Example 84, (3-{2-[4-(2-aminopyrimidin-5-yl)phenyl]-3-methylbutan-2-yl}-1,2,4-oxadiazol-5-yl)(piperazin-1-yl)methanone], the pIC50 in test [1] was 5.77; in test [2], 6.92.

On to `CC(C)C(C)(c1ccc(-c2cnc(N)nc2)cc1)c1noc(CCC(C)(C)C(=O)O)n1` (stereo not drawn) [Example 85, 4-(3-{2-[4-(2-aminopyrimidin-5-yl)phenyl]-3-methylbutan-2-yl}-1,2,4-oxadiazol-5-yl)-2,2-dimethylbutanoic acid], for which the results for the pIC50 in test [1] and in test [2] were less than 5.30 and 7.32, respectively.

Take `CC(=O)N1CCC(NC(=O)c2nc(C(C)(c3ccc(-c4cnc(N)nc4)cc3)C(C)C)no2)CC1` (stereo not drawn) [Example 86, N-(1-acetylpiperidin-4-yl)-3-{2-[4-(2-aminopyrimidin-5-yl)phenyl]-3-methylbutan-2-yl}-1,2,4-oxadiazole-5-carboxamide]: the pIC50 was less than 5.30 in test [1] and 6.72 in test [2].

Consider `CC(C)C(C)(c1ccc(-c2cnc(N)nc2)cc1)c1noc(NCCS(C)(=O)=O)n1` (stereo not drawn) [Example 87, 5-{4-[3-methyl-2-(5-{[2-(methylsulfonyl)ethyl]amino}-1,2,4-oxadiazol-3-yl)butan-2-yl]phenyl}pyrimidin-2-amine], for which the pIC50 in test [1] was 6.01; in test [2] it was 7.39.

Regarding `CC(C)C(C)(c1ccc(-c2cnc(N)nc2)cc1)c1noc(O)n1` (stereo not drawn) [Example 88, 3-{1-[4-(2-Amino-pyrimidin-5-yl)-phenyl]-1,2-dimethyl-propyl}-[1,2,4]oxadiazol-5-ol], the pIC50 in test [1] was less than 5.30. In test [2] (at 1000 nM, read-out: FLAP binding % inh @ 1000 nM), the inhibition at 1 µM turned out to be 51%.
